Experimental data taken from paper PMC9731866, “Structures of a constitutively active mutant of human IDH3 reveal new insights into the mechanisms of allosteric activation and the catalytic reaction” (The Journal of Biological Chemistry, 2022).

How the values were obtained:
Format in all cases: binding
[1] = molecular target: T1, αβ heterodimer of HsIDH3 (mutant form αMβ) (Homo sapiens, UniProt O43837+P50213, P50213:Q166A); test: biolayer interferometry, biotinylated protein on streptavidin sensor
T1 construct: gene IDH3A; coexpressed alpha and beta-TEV-His6 (pQlinkN), E. coli BL21(DE3) Codon-Plus, His6 tag cleaved with TEV; 1:1 heterodimer, mutant is heterotetramer (αMβ)2 of 131-149 kDa
T1 sequence (O43837 35-385 limits assumed, one chain of several): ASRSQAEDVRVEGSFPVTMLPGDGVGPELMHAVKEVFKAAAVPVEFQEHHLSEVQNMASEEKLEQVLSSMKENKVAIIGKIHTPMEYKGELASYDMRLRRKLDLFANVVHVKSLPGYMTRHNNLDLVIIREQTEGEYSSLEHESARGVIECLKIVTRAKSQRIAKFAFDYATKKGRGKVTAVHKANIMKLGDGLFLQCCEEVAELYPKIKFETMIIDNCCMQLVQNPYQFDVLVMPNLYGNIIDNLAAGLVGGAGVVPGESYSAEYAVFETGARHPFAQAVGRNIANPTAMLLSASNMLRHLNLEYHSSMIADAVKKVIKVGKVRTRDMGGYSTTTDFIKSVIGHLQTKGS

[2] = molecular target: T1, αβ heterodimer of HsIDH3 (mutant form αMβ); test: X-ray crystal structure, […] Å; settings: Mg2+ at active site; ADP at pseudo-allosteric site of beta subunit
[3] = molecular target: T2, αγ heterodimer of HsIDH3 (mutant form αMγ) (Homo sapiens, UniProt P50213+P51553, P50213:Q166A); test: X-ray crystal structure, […] Å; settings: allosteric site of gamma subunit
T2 construct: gene IDH3A; coexpressed alpha and gamma-TEV-His6 (pQlinkN), E. coli BL21(DE3) Codon-Plus, His6 tag cleaved with TEV; 1:1 heterodimer, mutant is heterotetramer (αMγ)2 of 131-149 kDa
T2 sequence (P50213 28-366 Q166A): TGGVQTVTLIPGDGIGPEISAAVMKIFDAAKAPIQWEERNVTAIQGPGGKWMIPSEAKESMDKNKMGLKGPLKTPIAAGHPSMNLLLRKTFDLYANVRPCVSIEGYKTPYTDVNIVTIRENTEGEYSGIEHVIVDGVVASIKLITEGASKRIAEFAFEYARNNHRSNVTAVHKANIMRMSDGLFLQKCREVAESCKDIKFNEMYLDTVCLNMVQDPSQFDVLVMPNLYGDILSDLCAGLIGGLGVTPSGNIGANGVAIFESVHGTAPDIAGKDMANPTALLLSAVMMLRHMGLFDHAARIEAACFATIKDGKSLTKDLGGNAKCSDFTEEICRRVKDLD
T2 sequence (P51553 40-393): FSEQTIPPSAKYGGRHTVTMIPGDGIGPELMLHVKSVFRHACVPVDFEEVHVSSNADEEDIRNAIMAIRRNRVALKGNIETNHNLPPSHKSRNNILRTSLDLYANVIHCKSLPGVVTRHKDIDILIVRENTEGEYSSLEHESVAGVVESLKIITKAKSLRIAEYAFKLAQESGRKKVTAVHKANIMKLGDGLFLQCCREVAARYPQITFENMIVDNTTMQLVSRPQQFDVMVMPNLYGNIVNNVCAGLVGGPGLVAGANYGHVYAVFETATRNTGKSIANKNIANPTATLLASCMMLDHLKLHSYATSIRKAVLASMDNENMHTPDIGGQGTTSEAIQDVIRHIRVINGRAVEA

Compound | Kd [1] [µM] | X-ray crystal structure, 2.70 Å [2] | X-ray crystal structure, 2.50 Å [3]
Nc1ncnc2c1ncn2[C@@H]1O[C@H](COP(=O)(O)OP(=O)(O)O)[C@@H](O)[C@H]1O [ADP] | 522 ± 10 | an ADP bound at the pseudo-allosteric site in the β subunit | 
O=C(O)CC(O)(CC(=O)O)C(=O)O [CIT] |  |  | there is a CIT bound at the allosteric site in the γ subunit
